# Results taken from patent publication US12404241B2 (Celgene Corporation, priority 2018, dated 2025).
# Counter-ions that a name gives are not always drawn.
# Target: T1, AR (Homo sapiens, UniProt P10275)
# T1 construct: endogenous in cells; host or cells: VCaP cells
# T1 sequence (P10275 1-920): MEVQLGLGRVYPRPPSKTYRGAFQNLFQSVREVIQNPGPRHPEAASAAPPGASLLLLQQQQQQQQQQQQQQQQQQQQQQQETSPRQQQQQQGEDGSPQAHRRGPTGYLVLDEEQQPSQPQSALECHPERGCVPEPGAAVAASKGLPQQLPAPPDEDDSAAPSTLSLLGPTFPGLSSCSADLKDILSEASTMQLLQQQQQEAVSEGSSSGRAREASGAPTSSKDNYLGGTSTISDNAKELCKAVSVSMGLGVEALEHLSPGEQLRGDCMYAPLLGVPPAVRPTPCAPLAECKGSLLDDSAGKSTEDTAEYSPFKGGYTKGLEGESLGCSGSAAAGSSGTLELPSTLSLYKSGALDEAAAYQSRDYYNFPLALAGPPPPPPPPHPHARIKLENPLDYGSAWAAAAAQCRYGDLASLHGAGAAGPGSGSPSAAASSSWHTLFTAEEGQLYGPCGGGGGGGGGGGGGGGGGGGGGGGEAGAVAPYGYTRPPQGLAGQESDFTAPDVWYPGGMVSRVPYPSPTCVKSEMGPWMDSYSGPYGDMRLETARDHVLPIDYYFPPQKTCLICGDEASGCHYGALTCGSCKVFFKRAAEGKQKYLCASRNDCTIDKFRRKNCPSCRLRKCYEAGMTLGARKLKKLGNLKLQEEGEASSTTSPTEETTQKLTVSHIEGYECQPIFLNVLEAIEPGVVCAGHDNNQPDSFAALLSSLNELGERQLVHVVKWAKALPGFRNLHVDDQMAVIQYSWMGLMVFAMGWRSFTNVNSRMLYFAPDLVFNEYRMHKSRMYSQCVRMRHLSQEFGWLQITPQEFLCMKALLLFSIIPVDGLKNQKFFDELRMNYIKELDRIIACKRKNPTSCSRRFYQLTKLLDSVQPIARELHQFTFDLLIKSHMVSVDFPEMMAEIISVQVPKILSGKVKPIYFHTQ
# Test: VCAP AR Degradation Assay
# Assay type: cell-based
# Settings: for Y (AR degradation efficiency, % of DMSO control): class symbols *; for DC50: class symbols A-C, read-out: DC50
# Summary of the method: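 AR protein in lysates quantified by sandwich ELISA after 24 h exposure of VCaP cells at 37 °C to 10 concentrations (1:3 steps, 5 μM top, final). Four-parameter logistic fit of percent-of-DMSO levels gave DC50 (50% degradation), EC50 and minimal AR level Y.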
Compound,"Y (AR degradation efficiency, % of DMSO control)",DC50 [nM]
"CCc1cc(N2C(=S)N(c3cnc(C#N)c(C(F)(F)F)c3)C(=O)C2(C)C)ccc1OCCN1CCN(CC(=O)Nc2cc(NC3CCC(=O)NC3=O)cc(F)c2F)[C@H](C)C1 (stereo partly drawn) [Example 100, 2-((R)-4-(2-(4-(3-(6-cyano-5-(trifluoromethyl)pyridin-3-yl)-5,5-dimethyl-4-oxo-2-thioxoimidazolidin-1-yl)-2-ethylphenoxy)ethyl)-2-methylpiperazin-1-yl)-N-(5-(2,6-dioxopiperidin-3-ylamino)-2,3-difluorophenyl)acetamide]",* (0<Y<=25%),< 100
"CC1(C)C(=O)N(c2ccc(C#N)c(C(F)(F)F)c2)C(=S)N1c1ccc(OCCN2CCN(CC(=O)Nc3cc(C#N)cc(NC4CCC(=O)NC4=O)c3)CC2)c(F)c1 (centres unmarked) [Example 65, 2-(4-(2-(4-(3-(4-cyano-3-(trifluoromethyl)phenyl)-5,5-dimethyl-4-oxo-2-thioxoimidazolidin-1-yl)-2-fluorophenoxy)ethyl)piperazin-1-yl)-N-(3-cyano-5-(2,6-dioxopiperidin-3-ylamino)phenyl)acetamide]",** (25%<Y<=35%),100 to 500
"CCc1cc(N2C(=S)N(c3cnc(C#N)c(C(F)(F)F)c3)C(=O)C2(C)C)ccc1OCCN1CCN(CC(=O)Nc2cc(F)cc(NC3CCC(=O)NC3=O)c2)C2(CC2)C1 (centres unmarked) [Example 110, 2-(7-(2-(4-(3-(6-cyano-5-(trifluoromethyl)pyridin-3-yl)-5,5-dimethyl-4-oxo-2-thioxoimidazolidin-1-yl)-2-ethylphenoxy)ethyl)-4,7-diazaspiro[2.5]octan-4-yl)-N-(3-(2,6-dioxopiperidin-3-ylamino)-5-fluorophenyl)acetamide]",* (0<Y<=25%),< 100
CCc1cc(N2C(=S)N(c3ccc(C#N)c(C(F)(F)F)c3)C(=O)C2(C)C)ccc1OCCN1CCN(CC(=O)Nc2cccc(NC3CCC(=O)NC3=O)c2)C[C@H]1C (some centres unmarked) [Example 44],* (0<Y<=25%),< 100
"C[C@@H]1CN(CCOc2ccc(N3C(=S)N(c4ccc(C#N)c(C(F)(F)F)c4)C(=O)C3(C)C)cc2C2CC2)CCN1CC(=O)Nc1cccc(NC2CCC(=O)NC2=O)c1 (stereo partly drawn) [Example 272, 2-((R)-4-(2-(4-(3-(4-cyano-3-(trifluoromethyl)phenyl)-5,5-dimethyl-4-oxo-2-thioxoimidazolidin-1-yl)-2-cyclopropylphenoxy)ethyl)-2-methylpiperazin-1-yl)-N-(3-(2,6-dioxopiperidin-3-ylamino)phenyl)acetamide]",* (0<Y<=25%),< 100
"CC(C)c1cc(N2C(=S)N(c3ccc(C#N)c(C(F)(F)F)c3)C(=O)C2(C)C)ccc1OCCN1C[C@@H](C)N(CC(=O)Nc2cc(Cl)cc(NC3CCC(=O)NC3=O)c2)C[C@H]1C (stereo partly drawn) [Example 175, N-(3-chloro-5-(2,6-dioxopiperidin-3-ylamino)phenyl)-2-((2R,5R)-4-(2-(4-(3-(4-cyano-3-(trifluoromethyl)phenyl)-5,5-dimethyl-4-oxo-2-thioxoimidazolidin-1-yl)-2-isopropylphenoxy)ethyl)-2,5-dimethylpiperazin-1-yl)acetamide]",* (0<Y<=25%),100 to 500
"C[C@@H]1CN(CCOc2ccc(N3C(=S)N(c4cnc(C#N)c(C(F)(F)F)c4)C(=O)C34CCC4)cc2C2CC2)C[C@H](C)N1CC(=O)Nc1cc(Cl)cc(NC2CCC(=O)NC2=O)c1 (stereo partly drawn) [Example 215, N-(3-chloro-5-(2,6-dioxopiperidin-3-ylamino)phenyl)-2-((2S,6R)-4-(2-(4-(7-(6-cyano-5-(trifluoromethyl)pyridin-3-yl)-8-oxo-6-thioxo-5,7-diazaspiro[3.4]octan-5-yl)-2-cyclopropylphenoxy)ethyl)-2,6-dimethylpiperazin-1-yl)acetamide]",* (0<Y<=25%),< 100
N#Cc1ncc(N2C(=O)C3(CCC3)N(c3ccc(OCCN4CCN(CC(=O)Nc5cccc(NC6CCC(=O)NC6=O)c5)CC4)c(F)c3)C2=S)cc1C(F)(F)F (centres unmarked) [Example 6],** (25%<Y<=35%),< 100
"CCc1cc(N2C(=S)N(c3cnc(C#N)c(C(F)(F)F)c3)C(=O)C23CCC3)ccc1OCCN1CCN(CC(=O)Nc2cccc(NC3CCC(=O)NC3=O)c2)CC1 (centres unmarked) [Example 56, 2-(4-(2-(4-(7-(6-cyano-5-(trifluoromethyl)pyridin-3-yl)-8-oxo-6-thioxo-5,7-diazaspiro[3.4]octan-5-yl)-2-ethylphenoxy)ethyl)piperazin-1-yl)-N-(3-(2,6-dioxopiperidin-3-ylamino)phenyl)acetamide]",* (0<Y<=25%),< 100
"CCc1cc(N2C(=S)N(c3cnc(C#N)c(C(F)(F)F)c3)C(=O)C2(C)C)ccc1OCCN1CCN(CC(=O)Nc2cccc(NC3CCC(=O)NC3=O)c2)C(C)(C)C1 (centres unmarked) [Example 97, 2-(4-(2-(4-(3-(6-cyano-5-(trifluoromethyl)pyridin-3-yl)-5,5-dimethyl-4-oxo-2-thioxoimidazolidin-1-yl)-2-ethylphenoxy)ethyl)-2,2-dimethylpiperazin-1-yl)-N-(3-(2,6-dioxopiperidin-3-ylamino)phenyl)acetamide]",* (0<Y<=25%),< 100
"N#Cc1ccc(N2C(=O)C3(CCC3)N(c3ccc(OCCN4CCN(CC(=O)Nc5cccc(NC6CCC(=O)NC6=O)c5)CC4)c(Cl)c3)C2=S)cc1C(F)(F)F (centres unmarked) [Example 7, hydrochloride]",* (0<Y<=25%),< 100
"CCc1cc(N2C(=S)N(c3ccc(C#N)c(C(F)(F)F)c3)C(=O)C2(C)C)ccc1OCCN1C[C@H](C)N(CC(=O)Nc2cc(Cl)cc(NC3CCC(=O)NC3=O)c2)C[C@@H]1C (stereo partly drawn) [Example 126, N-(3-chloro-5-(2,6-dioxopiperidin-3-ylamino)phenyl)-2-((2S,5S)-4-(2-(4-(3-(4-cyano-3-(trifluoromethyl)phenyl)-5,5-dimethyl-4-oxo-2-thioxoimidazolidin-1-yl)-2-ethylphenoxy)ethyl)-2,5-dimethylpiperazin-1-yl)acetamide]",* (0<Y<=25%),< 100
"CCc1cc(N2C(=S)N(c3ccc(C#N)c(C(F)(F)F)c3)C(=O)C2(C)C)ccc1OCCN1C[C@@H](C)N(CC(=O)Nc2cc(F)cc(NC3CCC(=O)NC3=O)c2)[C@@H](C)C1 (stereo partly drawn) [Example 283, 2-((2R,6S)-4-(2-(4-(3-(4-cyano-3-(trifluoromethyl)phenyl)-5,5-dimethyl-4-oxo-2-thioxoimidazolidin-1-yl)-2-ethylphenoxy)ethyl)-2,6-dimethylpiperazin-1-yl)-N-(3-(2,6-dioxopiperidin-3-ylamino)-5-fluorophenyl)acetamide]",* (0<Y<=25%),< 100
"CC1(C)C(=O)N(c2ccc(C#N)c(C(F)(F)F)c2)C(=S)N1c1ccc(OCCN2CCN(CC(=O)Nc3cc(NC4CCC(=O)NC4=O)ccc3F)CC2)c(CCF)c1 (centres unmarked) [Example 141, 2-(4-(2-(4-(3-(4-cyano-3-(trifluoromethyl)phenyl)-5,5-dimethyl-4-oxo-2-thioxoimidazolidin-1-yl)-2-(2-fluoroethyl)phenoxy)ethyl)piperazin-1-yl)-N-(5-(2,6-dioxopiperidin-3-ylamino)-2-fluorophenyl)acetamide]",* (0<Y<=25%),< 100
"CC1(C)C(=O)N(c2cnc(C#N)c(C(F)(F)F)c2)C(=S)N1c1ccc(OCCN2CCN(CC(=O)Nc3cc(Cl)cc(NC4CCC(=O)NC4=O)c3)CC2)cc1 (centres unmarked) [Example 24, 2-(4-(2-(4-(3-(6-cyano-5-(trifluoromethyl)pyridin-3-yl)-5,5-dimethyl-4-oxo-2-thioxoimidazolidin-1-yl)-2-ethylphenoxy)ethyl)-2,2-dimethylpiperazin-1-yl)-N-(3-((2,6-dioxopiperidin-3-yl)amino)-5-fluorophenyl)acetamide hydrochoride]",* (0<Y<=25%),< 100
"CCc1cc(N2C(=S)N(c3ccc(C#N)c(C(F)(F)F)c3)C(=O)C2(C)C)ccc1OC[C@@H](C)N1C[C@@H](C)N(CC(=O)Nc2cccc(NC3CCC(=O)NC3=O)c2)[C@@H](C)C1 (single isomer, unassigned) [Example 237]",** (25%<Y<=35%),100 to 500
